Laboratory results reported in patent US20230108049A1, “ORAL FAST-DISPERSING DOSAGE FORM OF RIMEGEPANT” (BIOHAVEN PHARMACEUTICAL HOLDING COMPANY LTD., priority 2020, published 2023).

What was measured:
[1] = Excretion after oral [14C]-rimegepant; format: in vivo, human; conditions: oral, healthy male subjects
Source text: Following oral administration of [^14C]-rimegepant to healthy male subjects, 78% of the total radioactivity was recovered in feces and 24% in urine. Unchanged rimegepant is the major single component in excreted feces (42%) and urine (51%).

Solubility in water = format: physicochemical; conditions: white to off-white crystalline solid

SMILES	total radioactivity recovered in feces [1] [%]	total radioactivity recovered in urine [1] [%]	solubility in water (Solubility in water)
N[C@@H]1c2cccnc2[C@H](OC(=O)N2CCC(n3c(=O)[nH]c4ncccc43)CC2)CC[C@H]1c1cccc(F)c1F [[^14C]-rimegepant]	78	24	–
N[C@@H]1c2cccnc2[C@H](OC(=O)N2CCC(n3c(=O)[nH]c4ncccc43)CC2)CC[C@H]1c1cccc(F)c1F [rimegepant hemisulfate, (5S,6S,9R)-5-amino-6-(2,3-difluorophenyl)-6,7,8,9-tetrahydro-5H-cyclohepta[b]pyridin-9-yl 4-(2-oxo-2,3-dihydro-1H-imidazo[4,5-b]pyridin-1-yl)-1-piperidinecarboxylate hemisulfate sesquihydrate]	–	–	slightly soluble in water
